Source: US20210318306A1, “Compositions for and Methods of Neutralizing Lipopolysaccharide Toxicity and Methods of Identifying the Same” (priority 2020, published 2021)
Several values for one entry are separate records, joined by “and”; a condition that tells them apart may be missing. Identical values can stand only once. Entries after “also recorded” stand apart in the source; their conditions may differ.

Columns and labels:
Format in all cases: cell-based, human
[1] = test system: HEK-Blue hTLR4 cells; experiment: IL-8 in HEK-Blue hTLR4 cell supernatants with standard P.g. LPS and simple solutions at 1 mM vs 10 mM total zinc (Example 4); details: for IL-8 Concentration, replicate: listed as ZnCitrate
Experimental: (§1) HEK-Blue hTLR4 cells (Invivogen, cat #hkb-htlr4) were cultured in a DMEM culture medium supplemented with 10% FBS and 1% penstrep at 37° C. with 5% CO2. LPS from Porphyromonas gingivalis (P.g. LPS; Invivogen, cat #tlrl-pglps and cat #tlrl-ppglps) activates TLR4 receptor and downstream inflammation in HEK-Blue hTLR4 cells. P.g. LPS is co-incubated with HEK-Blue hTLR4 cells in the absence or presence of the simple solutions. Standard and ultrapure P.g. LPS were both used due to ultrapure being a specific ligand for the TLR4 receptor while standard LPS is a ligand for both TLR2 and TLR4.
(§2) The simple solutions a) Zinc Oxide (ZnO), b) Zinc Citrate (ZnCitrate), c) Zinc Oxide+Zinc Citrate (Dual Zinc; DZ), d) Dual Zinc+Arginine (DZA, zinc oxide, zinc citrate and arginine), and e) L-Arginine (Arg) were diluted at different concentrations with culture medium.
1) experiments using 1 mM vs 10 mM total zinc; and
(§3) HEK-Blue hTLR4 cells were plated in 96-well plates and grown until confluent at 37° C. and 5% CO2 in HEK-blue selection media (DMEM with 10% FBS, 1% penicillin-streptomycin, and antibiotics for HEK-blue selection (Invivogen, cat #hb-sel)). Cells were co-incubated overnight with varying concentrations of different zinc actives as well as arginine and stimulated with either 0.1 μg/mL standard P. gingivalis LPS or 1 μg/mL ultrapure P. gingivalis LPS. Cell supernatants were collected for human inflammation cytokine panels using Multiplex and ELISA analysis.
(§4) Multiplex analysis was performed using the MILLIPLEX MAP Human Cytokine/Chemokine Magnetic Bead Panel—Immunology Multiplex Assay for IL-1, IL-6, IL-8, TNFα, and GM-CSF (Millipore Sigma, cat #HCYTOMAG-60K).
Testing was performed using total zinc concentrations to normalize the amount the zinc applied in the cell culture medium during co-incubation. Two concentrations of total zinc ion are based on the potential amount of zinc retained on the mouth soft tissue surface.

[2] = test system: HEK-Blue hTLR4 cells; experiment: IL-8 dose response in HEK-Blue hTLR4 cells with P.g. LPS 1 μg/ml and 3X-24X dilutions of simple solutions (Example 4); details: for IL-8 Concentration, replicate: listed as ZnCitrate
Experimental: as §1, §2
2) experiments using 3×, 6×, 12×, and 24× dilution fold of the simple solutions (see Table 6 below).
as §3, §4
In order to understand the role of Arginine in the inhibition of LPS induced inflammation, a dose response experiment was performed using ultrapure P.g. LPS, which only specifically targets TLR4 receptor, in order to maximize the activation of NF-kB and expression of IL-8.
The testing samples were prepared as the stock simple solutions. […] The first serial dilution was made 3 times with water, a dilution factor simulating dilution of toothpastes while brushing. Additional serial dilutions were made by 2-fold of the first dilution to study dose response effect.

[3] = test system: HEK-TLR4 cells; experiment: P. gingivalis LPS-induced cytokine secretion by HEK-TLR4 cells, Luminex 5-plex magnetic bead panel (Example 2)
Experimental: Commercially available HEK-Blue TLR4 cells (Invitrogen) are recombinant HEK 293 cells that have been transformed with DNA that encodes TLR4 that is expressed and present on the cell surface. HEK-Blue TLR4 cells are grown ion culture and used can be used in experimental assays to identify test compositions that modulate inflammation pathways stimulated by TLR4-LPS interaction.
Initial for LPS and zinc-containing starting solutions were made as follows. An LPS starting solution was prepared as follows: a […] solution of LPS was prepared using 2 μl of 1 mg/ml LPS and 10 ml media. Multiple zinc starting solutions were each prepared using media as diluent: a) 20 mM zinc oxide, b) 2 mM zinc oxide, c) 20 mM zinc citrate, d) 2 mM zinc citrate, e) 20 mM of a composition containing a 2:1 mixture of zinc oxide and zinc citrate and f) 2 mM of a composition containing a 2:1 mixture of zinc oxide and zinc citrate. The starting solutions were used to prepare various test samples.
In some embodiments, control assays include “Untreated”, in which eight Zinc test samples without LPS were made: […], 10 mM zinc oxide+zinc citrate, 1 mM zinc oxide+zinc citrate, 10 mM zinc oxide+zinc citrate+arginine and 1 mM zinc oxide+zinc citrate+arginine, The test samples without LPS were prepared by diluting the zinc starting solutions with equal parts media. Eight test samples with LPS were made: […], […], […], […], 10 mM zinc oxide+zinc citrate LPS, 1 mM zinc oxide+zinc citrate LPS, 10 mM zinc oxide+zinc citrate+arginine LPS and 1 mM zinc oxide+zinc citrate+arginine LPS. The test samples with LPS were prepared by diluting the zinc starting solutions with equal parts LPS starting solution.
Cells were grown to 70-80% confluent in a 96 well plate. 100 uL of a test sample was added to a well. Cells with test sample were incubated overnight. Media was collected from each well and transferred to a corresponding well in a 96-well plate. Assays to measure proinflammatory cytokines including IL-8 secretion were performed for each well.
Inflammation markers in supernatants collected from HEK-Blue cells co-incubated with Zinc and Zinc+LPS were quantified using Luminex Magpix instrument (MAGPIX-XPON42) and human 5-plex cytokine/chemokine Magnetic bead panel (Millipore HCYTOMAG-60K). The human 5-plex cytokine/chemokine Magnetic bead panel quantifies TNF-α, IL-6, IL-8, IL-1β and GM-CSF.
The Luminex Kit Procedure outlined in the instruction manual for each separate Luminex kit was performed on the supernatants collected from the HEK-Blue cells co-incubated with Zinc test solutions without LPS and Zinc test solutions plus LPS. Quality controls in range for the specified analytes were performed to ensure levels were within the acceptable range.
To run the Luminex Test, all necessary calibration and verification procedures as outlined by the MagPix and xPonent softwares were completed and the appropriate protocol for the assay was selected. The standards were verified to be correct and complete the plate layout of samples was verified. […] The “Avg. Result” was identified in the results generated.
Experiments were conducted to identify compositions that inhibit P. gingivalis LPS-induced IL-8, TNFα, GM-CSF, IL-1β and IL-6 by HEK-TLR4 cells. HEK-TLR4 cells in 96 well plates were contacted with 100 μl samples. IL-8, TNFα, GM-CSF, IL-1β and IL-6 were detected as described above.

[4] = 1 mM total zinc with standard P.g. LPS (0.1 μg/ml)
[5] = 10 mM total zinc with standard P.g. LPS (0.1 μg/ml)
[6] = 3X dilution of stock simple solution (Table 6) with P.g. LPS (1 μg/ml)
[7] = 6X dilution of stock simple solution (Table 6) with P.g. LPS (1 μg/ml)
[8] = 12X dilution of stock simple solution (Table 6) with P.g. LPS (1 μg/ml)
[9] = 24X dilution of stock simple solution (Table 6) with P.g. LPS (1 μg/ml)
[10] = 300 ppm with 0.1μ/ml P. gingivalis LPS
[11] = 600 ppm with 0.1μ/ml P. gingivalis LPS
[12] = P. gingivalis LPS, 300 and 600 ppm, listed as zinc citrate

## O=C([O-])CC(O)(CC(=O)[O-])C(=O)[O-].O=C([O-])CC(O)(CC(=O)[O-])C(=O)[O-].[Zn+2].[Zn+2].[Zn+2] [ZnC, zinc citrate]
[1]; [4]
  IL-8 Concentration, Average: 34.9 pg/mL
  IL-8 Concentration, replicate: 55.35 pg/mL and 27.95 pg/mL and 26.65 pg/mL and 29.55 pg/mL
[1]; [5]
  IL-8 Concentration, Average: 10.6 pg/mL
  IL-8 Concentration, replicate: 11.85 pg/ml (2×) and 3.15 pg/ml
[1]; at both 1 mM and 10 mM
  IL-8 induced by co-incubation with P.g. LPS (in words): reduced
[2]; [6]
  IL-8 Concentration, Average: 32.1 pg/mL
  IL-8 Concentration, replicate: 35.4 pg/mL and 28.9 pg/mL
[2]; [7]
  IL-8 Concentration, Average: 38.0 pg/mL
  IL-8 Concentration, replicate: 38.1 pg/mL and 37.9 pg/mL
[2]; [8]
  IL-8 Concentration, Average: 51.9 pg/mL
  IL-8 Concentration, replicate: 55.6 pg/mL and 48.1 pg/mL
[2]; [9]
  IL-8 Concentration, Average: 86.6 pg/mL
  IL-8 Concentration, replicate: 88.5 pg/mL and 84.8 pg/mL
[3]; [10]
  GM-CSF (raw data, single replicate): <3.2 pg/ml (3×) and 0.633 pg/ml
  IL-1β (raw data, single replicate): 0.4044 pg/mL and 0.5186 pg/mL and 0.1227 pg/mL and 1.331 pg/mL
  IL-6 (raw data, single replicate): <3.2 pg/ml (3×) and 0.5932 pg/ml
  IL-8 (average result): 395.2 pg/mL
  IL-8 (raw data, single replicate): 364.5 pg/mL and 386.8 pg/mL and 285.4 pg/mL and 544.1 pg/mL
  TNF-α (average result): 3.857 pg/mL
  TNFα (raw data, single replicate): 3.113 pg/mL and 2.696 pg/mL and 2.325 pg/mL and 7.294 pg/mL
[3]; 300 ppm, without LPS
  GM-CSF (raw data, single replicate): <3.2 pg/mL
  IL-1β (raw data, single replicate): 0.01381 pg/mL and 0.1227 pg/mL and 0.2344 pg/mL and 0.4044 pg/mL
  IL-6 (raw data, single replicate): <3.2 pg/mL
  IL-8 (average result): 294 pg/mL
  IL-8 (raw data, single replicate): 254.6 pg/mL and 237.5 pg/mL and 296.9 pg/mL and 386.9 pg/mL
  TNF-α (average result): 1.616 pg/mL
  TNFα (raw data, single replicate): 1.244 pg/mL and 1.675 pg/mL and 1.373 pg/mL and 2.173 pg/mL
[3]; [11]
  GM-CSF (raw data, single replicate): <3.2 pg/mL
  IL-1β (raw data, single replicate): 0.6335 pg/ml and 0.1227 pg/ml (2×) and 0.2344 pg/ml
  IL-6 (raw data, single replicate): <3.2 pg/mL
  IL-8 (average result): 326.3 pg/mL
  IL-8 (raw data, single replicate): 447.3 pg/mL and 287.8 pg/mL and 291.5 pg/mL and 278.6 pg/mL
  TNF-α (average result): 1.596 pg/mL
  TNFα (raw data, single replicate): 2.587 pg/mL and 1.416 pg/mL and 1.266 pg/mL and 1.116 pg/mL
[3]; 600 ppm, without LPS
  GM-CSF (raw data, single replicate): 0.1483 pg/ml and 0.07253 pg/ml and <3.2 pg/ml (2×)
  IL-1β (raw data, single replicate): 0.9228 pg/mL and 0.2908 pg/mL and 0.01381 pg/mL and 0.1227 pg/mL
  IL-6 (raw data, single replicate): 0.3248 pg/ml and <3.2 pg/ml (3×)
  IL-8 (average result): 293.9 pg/mL
  IL-8 (raw data, single replicate): 434.5 pg/mL and 262.1 pg/mL and 234.6 pg/mL and 244.6 pg/mL
  TNF-α (average result): 1.172 pg/mL
  TNFα (raw data, single replicate): 2.064 pg/mL and 1.073 pg/mL and 0.6069 pg/mL and 0.9454 pg/mL
[3]; P. gingivalis LPS, 300 and 600 ppm, listed as Zinc citrate
  effect on LPS-induced TNFα (in words): more profound inhibition
[3]; [12]
  effect on LPS-induced TNFα (in words): significantly reduced
  effect on induction of IL-8 by LPS (in words): significantly reduced; also recorded: profound inhibition
